Toxic doses and inconclusive results are not listed. Cut-off read from the data, not from the text of the source: active = T/C of 150% or more; inactive = T/C below 125%.
Tested on: L1210 leukemia ip in BDF1 mice, survival T/C
Assay: NCI In Vivo Anticancer Drug Screen. Data for tumor model L1210 Leukemia (intraperitoneal) in B6D2F1 (BDF1) mice
Conditions: endpoint: mean survival time, higher = longer survival
Procedure, shortened: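 Mice bearing the transplanted tumor received compound or vehicle. Survival of the treated group was divided by that of the vehicle-treated control group to give the ratio.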

[1] = dose: 100.0 mg/kg/injection, schedule: Q04DX003 (ip), vehicle: saline with Tween-80
[2] = dose: 200.0 mg/kg/injection, schedule: Q04DX003 (ip), vehicle: saline with Tween-80
[3] = dose: 400.0 mg/kg/injection, schedule: Q04DX003 (ip), vehicle: saline with Tween-80
[4] = dose: 100.0 mg/kg/injection, schedule: Q01DX001 (ip), vehicle: saline
[5] = dose: 400.0 mg/kg/injection, schedule: Q01DX001 (ip), vehicle: saline
[6] = dose: 100.0 mg/kg/injection, schedule: Q01DX001 (ip), vehicle: Klucel (hydroxypropylcellulose) (HPC)
[7] = dose: 100.0 mg/kg/injection, schedule: Q01DX009 (ip), vehicle: saline
[8] = dose: 200.0 mg/kg/injection, schedule: Q01DX009 (ip), vehicle: saline
[9] = dose: 50.0 mg/kg/injection, schedule: Q04DX002 (ip), vehicle: saline
[10] = dose: 100.0 mg/kg/injection, schedule: Q04DX002 (ip), vehicle: saline
[11] = dose: 200.0 mg/kg/injection, schedule: Q01DX001 (ip), vehicle: saline
[12] = dose: 100.0 mg/kg/injection, schedule: Q04DX003 (ip), vehicle: Klucel (hydroxypropylcellulose) (HPC)
[13] = dose: 200.0 mg/kg/injection, schedule: Q01DX009 (ip), vehicle: Klucel (hydroxypropylcellulose) (HPC)
[14] = dose: 200.0 mg/kg/injection, schedule: Q04DX003 (ip), vehicle: Klucel (hydroxypropylcellulose) (HPC)
[15] = dose: 400.0 mg/kg/injection, schedule: Q04DX003 (ip), vehicle: Klucel (hydroxypropylcellulose) (HPC)
[16] = dose: 100.0 mg/kg/injection, schedule: Q01DX001 (ip), vehicle: carboxymethylcellulose (CMC)
[17] = dose: 200.0 mg/kg/injection, schedule: Q01DX001 (ip), vehicle: carboxymethylcellulose (CMC)
[18] = dose: 400.0 mg/kg/injection, schedule: Q01DX001 (ip), vehicle: carboxymethylcellulose (CMC)

Measured: T/C

O=C(O)C1C2C=CC(C2)C1C(=O)Nc1ccccc1 (configuration not stated)
inactive: [1] 106 % of control | [2] 96 % of control | [3] 101 % of control

Cc1ccccc1N1CCN(c2c3c(nc4ccccc24)CCCCC3)CC1
inactive: [4] 93 % of control | [5] 93 % of control

COC(=O)C1CCC(NS(=O)(=O)c2ccc(C)cc2)CC1 (configuration not stated)
inactive: [6] 98 % of control | dose: 200.0 mg/kg/injection, schedule: Q01DX001 (ip), vehicle: Klucel (hydroxypropylcellulose) (HPC) 98 % of control | dose: 400.0 mg/kg/injection, schedule: Q01DX001 (ip), vehicle: Klucel (hydroxypropylcellulose) (HPC) 101 % of control

Cc1ccc(NCCN2CCCCC2)c2c(=O)c3ccccc3sc12
inactive: [7] 110 % of control | [8] 96 % of control | dose: 400.0 mg/kg/injection, schedule: Q01DX009 (ip), vehicle: saline 107 % of control

CC(C)C(N)C(=O)NCCCCC(N)C(=O)O (configuration not stated)
inactive: dose: 25.0 mg/kg/injection, schedule: Q04DX002 (ip), vehicle: saline 103 % of control | [9] 103 % of control | [10] 100 % of control

NC(=O)CN(CC(N)=O)CC(N)=O
inactive: [4] 102 % of control | [11] 98 % of control | [5] 102 % of control

O=C(NCCNC(=O)Nc1ccc(Cl)cc1)Nc1ccc(Cl)cc1
inactive: dose: 100.0 mg/kg/injection, schedule: Q01DX009 (ip), vehicle: Klucel (hydroxypropylcellulose) (HPC) 96 % of control | [12] 98 % of control | [13] 94 % of control | [14] 93 % of control | dose: 400.0 mg/kg/injection, schedule: Q01DX009 (ip), vehicle: Klucel (hydroxypropylcellulose) (HPC) 91 % of control | [15] 92 % of control

CC(=O)Nc1nc(Cl)c2ncn(C3OC(COCc4ccccc4)C(OCc4ccccc4)C3OCc3ccccc3)c2n1 (configuration not stated)
inactive: [12] 103 % of control | [14] 103 % of control | [15] 104 % of control

COc1cc2c(cc1OC)C1CC(=O)CCN1CC2 (configuration not stated)
inactive: [13] 101 % of control

COC(=O)/C(=C\c1ccncc1)c1cccc2ccccc12
inactive: [1] 104 % of control | [2] 100 % of control | [3] 94 % of control

CC(C)OC(=O)C#CC(=O)O
inactive: [4] 98 % of control

CC(=O)Nc1ccc2c(ccc3cccc[n+]32)c1
inactive: dose: 10.0 mg/kg/injection, schedule: Q01DX001 (ip), vehicle: saline 93 % of control | dose: 20.0 mg/kg/injection, schedule: Q01DX001 (ip), vehicle: saline 98 % of control

O=[N+]([O-])c1nc2ccccc2[nH]1
inactive: dose: 100.0 mg/kg/injection, schedule: Q01DX001 (ip), vehicle: other 98 % of control

CN1CN(c2ccccc2)C2(CCNCC2)C1=O
inactive: dose: 75.0 mg/kg/injection, schedule: Q01DX001 (ip), vehicle: saline 102 % of control | dose: 150.0 mg/kg/injection, schedule: Q01DX001 (ip), vehicle: saline 96 % of control

Nc1ncnc(N)c1NC(=O)c1ccc([N+](=O)[O-])cc1
inactive: dose: 25.0 mg/kg/injection, schedule: Q01DX001 (ip), vehicle: Klucel (hydroxypropylcellulose) (HPC) 93 % of control | dose: 50.0 mg/kg/injection, schedule: Q01DX001 (ip), vehicle: Klucel (hydroxypropylcellulose) (HPC) 89 % of control | [6] 102 % of control

Cc1ccc2nc(Nc3ccc(Cl)cc3)cc(C(O)C3CCCCN3)c2c1 (configuration not stated)
inactive: [12] 96 % of control | [14] 92 % of control | [15] 97 % of control

O=C(Nc1cccc(Cl)c1)Nc1cc(C(F)(F)F)ccc1Cl
inactive: dose: 50.0 mg/kg/injection, schedule: Q01DX001 (ip), vehicle: carboxymethylcellulose (CMC) 96 % of control | [16] 100 % of control | [17] 91 % of control | [18] 100 % of control

C1=NC(c2ccccc2)=CN(C2CCCC2)C1(c1ccccc1)C1CCCC1 (configuration not stated)
inactive: [9] 105 % of control | dose: 100.0 mg/kg/injection, schedule: Q04DX002 (ip), vehicle: Klucel (hydroxypropylcellulose) (HPC) 98 % of control | [10] 108 % of control | dose: 200.0 mg/kg/injection, schedule: Q04DX002 (ip), vehicle: Klucel (hydroxypropylcellulose) (HPC) 98 % of control | dose: 200.0 mg/kg/injection, schedule: Q04DX002 (ip), vehicle: saline 108 % of control | dose: 400.0 mg/kg/injection, schedule: Q04DX002 (ip), vehicle: Klucel (hydroxypropylcellulose) (HPC) 109 % of control

O=C(Nc1ccc([N+](=O)[O-])cc1)N(c1ccccn1)c1ccccn1
inactive: [16] 89 % of control | [17] 91 % of control | [18] 95 % of control

O=C(c1ccc([N+](=O)[O-])cc1)N1C2CCCCCCC21 (configuration not stated)
inactive: dose: 50.0 mg/kg/injection, schedule: Q01DX009 (ip), vehicle: saline 121 % of control | [4] 94 % of control | [7] 113 % of control | [11] 89 % of control | [8] 110 % of control

O=C(CNC(=O)OCc1ccccc1)NCCCCCCCCCCNC(=O)CNC(=O)OCc1ccccc1
inactive: dose: 10.0 mg/kg/injection, schedule: Q01DX Z (ip), vehicle: saline 104 % of control | dose: 30.0 mg/kg/injection, schedule: Q01DX Z (ip), vehicle: saline 90 % of control | dose: 100.0 mg/kg/injection, schedule: Q01DX Z (ip), vehicle: saline 90 % of control | dose: 300.0 mg/kg/injection, schedule: Q01DX Z (ip), vehicle: saline 95 % of control

ClP1(N2CCCCC2)=NP(Cl)(N2CCCCC2)=NP(Cl)(N2CCCCC2)=NP(Cl)(N2CCCCC2)=N1 (configuration not stated)
inactive: dose: 100.0 mg/kg/injection, schedule: Q04DX003 (ip), vehicle: saline 105 % of control | dose: 200.0 mg/kg/injection, schedule: Q04DX003 (ip), vehicle: saline 94 % of control | dose: 400.0 mg/kg/injection, schedule: Q04DX003 (ip), vehicle: saline 94 % of control

Reference: PubChem BioAssay AID248 (DTP/NCI, 2004)
